Test results as given in PubChem BioAssay AID1845204 (Molecular Pharmacology Branch, DTP, NCI, 2023).

System: HSSY-II tumor spheroid viability
Test: Anticancer human tumor HSSY-II cell line growth inhibition;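 note: spheroids exposed to compounds for seven days before reading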;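 for viability, T/C: percent of DMSO vehicle control viability so 100% = untreated level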
Settings: spheroids with HUVEC and MSC; for IC50: curve of first compound; for viability, T/C: stronger effect = lower value
Outline: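 Single agents and combinations were tested on spheroids built from tumor cells plus HUVEC and hMSC, at half-log dilutions starting at or near clinical Cmax, else 10 microM; final DMSO 0.25% (v/v).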

For `COc1ccc([C@@H](O)c2cc(-c3ncnc4cc(N5CCOCC5)ccc34)c(F)cc2Cl)nn1` + CC[C@@]1(O)C(=O)OCc2c1cc1n(c2=O)Cc2cc3c(CN(C)C)c(O)ccc3nc2-1, the IC50 (second compound 0.003 µM) was 1380 nM, the IC50 (second compound 0.00949 µM) was 902 nM and the IC50 (second compound 0.03 µM) was < 31.6 nM. The IC50 (second compound 0.0949 µM) was < 31.6 nM, the IC50 (second compound 0.3 µM) was < 31.6 nM and the viability, T/C (second compound 0.003 µM, first compound 0.0316 µM) was 88.8%. For the same molecule, the viability, T/C (second compound 0.003 µM, first compound 0.1 µM) was 89.5%, the viability, T/C (second compound 0.003 µM, first compound 0.316 µM) was 74.8% and the viability, T/C (second compound 0.003 µM, first compound 1 µM) was 61.5%. It also gave a viability, T/C (second compound 0.003 µM, first compound 3.16 µM) of 26.5%, a viability, T/C (second compound 0.003 µM, first compound 10 µM) of 8.32% and a viability, T/C (second compound 0.00949 µM, first compound 0.0316 µM) of 62.6%. For the same molecule, the viability, T/C (second compound 0.00949 µM, first compound 0.1 µM) was 65.5%, the viability, T/C (second compound 0.00949 µM, first compound 0.316 µM) was 63.8% and the viability, T/C (second compound 0.00949 µM, first compound 1 µM) was 48.6%. The viability, T/C (second compound 0.00949 µM, first compound 3.16 µM) was 11.7%, the viability, T/C (second compound 0.00949 µM, first compound 10 µM) was 3.18% and the viability, T/C (second compound 0.03 µM, first compound 0.0316 µM) was 10.3%. It also gave a viability, T/C (second compound 0.03 µM, first compound 0.1 µM) of 12.2%, a viability, T/C (second compound 0.03 µM, first compound 0.316 µM) of 10.3% and a viability, T/C (second compound 0.03 µM, first compound 1 µM) of 6.74%. The viability, T/C (second compound 0.03 µM, first compound 3.16 µM) was 2.41%, the viability, T/C (second compound 0.03 µM, first compound 10 µM) was 1.53% and the viability, T/C (second compound 0.0949 µM, first compound 0.0316 µM) was 9.13%. It also gave a viability, T/C (second compound 0.0949 µM, first compound 0.1 µM) of 8.32%, a viability, T/C (second compound 0.0949 µM, first compound 0.316 µM) of 7.14% and a viability, T/C (second compound 0.0949 µM, first compound 1 µM) of 2.81%. The viability, T/C (second compound 0.0949 µM, first compound 3.16 µM) was 1.55%, the viability, T/C (second compound 0.0949 µM, first compound 10 µM) was 1.22% and the viability, T/C (second compound 0.3 µM, first compound 0.0316 µM) was 6.23%. It also gave a viability, T/C (second compound 0.3 µM, first compound 0.1 µM) of 5.53%, a viability, T/C (second compound 0.3 µM, first compound 0.316 µM) of 4.4% and a viability, T/C (second compound 0.3 µM, first compound 1 µM) of 2.36%. The viability, T/C (second compound 0.3 µM, first compound 3.16 µM) was 1.09% and the viability, T/C (second compound 0.3 µM, first compound 10 µM) was 0.71%.
With `CNCc1ccc(-c2cc(-c3nc(-c4ccc(S(=O)(=O)C(C)C)cc4)cnc3N)on2)cc1` + Cn1nnc2c(C(N)=O)ncn2c1=O the IC50 (second compound 1 µM) was 44.1 nM, the IC50 (second compound 3.16 µM) was 49.9 nM and the IC50 (second compound 10 µM) was 46 nM. For the same molecule, the IC50 (second compound 31.6 µM) was 47 nM, the IC50 (second compound 100 µM) was 42.7 nM and the viability, T/C (second compound 1 µM, first compound 0.00949 µM) was 96.8%. For the same molecule, the viability, T/C (second compound 1 µM, first compound 0.03 µM) was 70.5%, the viability, T/C (second compound 1 µM, first compound 0.0949 µM) was 9.33% and the viability, T/C (second compound 1 µM, first compound 0.3 µM) was 4.77%. The viability, T/C (second compound 1 µM, first compound 0.949 µM) was 1.51%, the viability, T/C (second compound 1 µM, first compound 3 µM) was 0.14% and the viability, T/C (second compound 3.16 µM, first compound 0.00949 µM) was 98.4%. For the same molecule, the viability, T/C (second compound 3.16 µM, first compound 0.03 µM) was 81.4%, the viability, T/C (second compound 3.16 µM, first compound 0.0949 µM) was 10.3% and the viability, T/C (second compound 3.16 µM, first compound 0.3 µM) was 4.71%. It also gave a viability, T/C (second compound 3.16 µM, first compound 0.949 µM) of 1.26%, a viability, T/C (second compound 3.16 µM, first compound 3 µM) of 0.11% and a viability, T/C (second compound 10 µM, first compound 0.00949 µM) of 102%. The viability, T/C (second compound 10 µM, first compound 0.03 µM) was 74.7%, the viability, T/C (second compound 10 µM, first compound 0.0949 µM) was 8.12% and the viability, T/C (second compound 10 µM, first compound 0.3 µM) was 5.47%. The viability, T/C (second compound 10 µM, first compound 0.949 µM) was 1.58%, the viability, T/C (second compound 10 µM, first compound 3 µM) was 0.12% and the viability, T/C (second compound 31.6 µM, first compound 0.00949 µM) was 100%. For the same molecule, the viability, T/C (second compound 31.6 µM, first compound 0.03 µM) was 75%, the viability, T/C (second compound 31.6 µM, first compound 0.0949 µM) was 10.7% and the viability, T/C (second compound 31.6 µM, first compound 0.3 µM) was 4.8%. For the same molecule, the viability, T/C (second compound 31.6 µM, first compound 0.949 µM) was 2.03%, the viability, T/C (second compound 31.6 µM, first compound 3 µM) was 0.15% and the viability, T/C (second compound 100 µM, first compound 0.00949 µM) was 91.3%. It also gave a viability, T/C (second compound 100 µM, first compound 0.03 µM) of 69.4%, a viability, T/C (second compound 100 µM, first compound 0.0949 µM) of 5.96% and a viability, T/C (second compound 100 µM, first compound 0.3 µM) of 4.82%. For the same molecule, the viability, T/C (second compound 100 µM, first compound 0.949 µM) was 1.42% and the viability, T/C (second compound 100 µM, first compound 3 µM) was 0.2%.
